{"source": "patent US10526280B2", "about": "(University of Pittsburgh—Of the Commonwealth System of …, priority 2014, dated 2020)", "key": {"KCNQ2/3 channels": {"biological_target": "T1, KCNQ2/3 channels (Homo sapiens, UniProt O43525+O43526)", "T1 construct": "expressed in transfected cells; host or cells: CHO cells, transient expression", "T1 sequence (O43526 whole entry)": "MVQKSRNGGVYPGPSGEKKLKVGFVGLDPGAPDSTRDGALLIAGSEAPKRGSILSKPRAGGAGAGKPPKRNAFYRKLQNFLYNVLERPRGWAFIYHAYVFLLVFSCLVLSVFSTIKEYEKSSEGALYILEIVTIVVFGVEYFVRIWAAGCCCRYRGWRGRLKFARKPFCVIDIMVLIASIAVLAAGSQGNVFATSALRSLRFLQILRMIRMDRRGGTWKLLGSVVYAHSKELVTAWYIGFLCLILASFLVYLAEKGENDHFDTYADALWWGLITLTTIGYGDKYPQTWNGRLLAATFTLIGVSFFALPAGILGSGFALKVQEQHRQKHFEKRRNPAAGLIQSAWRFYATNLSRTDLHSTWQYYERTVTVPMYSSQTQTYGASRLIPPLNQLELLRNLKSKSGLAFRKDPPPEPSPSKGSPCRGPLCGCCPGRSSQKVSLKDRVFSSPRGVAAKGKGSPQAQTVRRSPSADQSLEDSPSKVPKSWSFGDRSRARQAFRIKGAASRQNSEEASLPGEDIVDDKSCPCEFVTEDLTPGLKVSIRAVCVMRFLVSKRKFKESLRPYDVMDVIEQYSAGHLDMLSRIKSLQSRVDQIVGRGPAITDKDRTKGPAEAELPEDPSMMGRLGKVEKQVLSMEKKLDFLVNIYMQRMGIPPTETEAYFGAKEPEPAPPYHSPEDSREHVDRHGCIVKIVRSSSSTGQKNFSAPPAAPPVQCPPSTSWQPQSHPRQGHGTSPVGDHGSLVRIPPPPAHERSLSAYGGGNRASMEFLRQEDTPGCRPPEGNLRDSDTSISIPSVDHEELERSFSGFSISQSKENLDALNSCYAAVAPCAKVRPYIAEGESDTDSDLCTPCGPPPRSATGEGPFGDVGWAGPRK", "T1 sequence (O43525 whole entry)": "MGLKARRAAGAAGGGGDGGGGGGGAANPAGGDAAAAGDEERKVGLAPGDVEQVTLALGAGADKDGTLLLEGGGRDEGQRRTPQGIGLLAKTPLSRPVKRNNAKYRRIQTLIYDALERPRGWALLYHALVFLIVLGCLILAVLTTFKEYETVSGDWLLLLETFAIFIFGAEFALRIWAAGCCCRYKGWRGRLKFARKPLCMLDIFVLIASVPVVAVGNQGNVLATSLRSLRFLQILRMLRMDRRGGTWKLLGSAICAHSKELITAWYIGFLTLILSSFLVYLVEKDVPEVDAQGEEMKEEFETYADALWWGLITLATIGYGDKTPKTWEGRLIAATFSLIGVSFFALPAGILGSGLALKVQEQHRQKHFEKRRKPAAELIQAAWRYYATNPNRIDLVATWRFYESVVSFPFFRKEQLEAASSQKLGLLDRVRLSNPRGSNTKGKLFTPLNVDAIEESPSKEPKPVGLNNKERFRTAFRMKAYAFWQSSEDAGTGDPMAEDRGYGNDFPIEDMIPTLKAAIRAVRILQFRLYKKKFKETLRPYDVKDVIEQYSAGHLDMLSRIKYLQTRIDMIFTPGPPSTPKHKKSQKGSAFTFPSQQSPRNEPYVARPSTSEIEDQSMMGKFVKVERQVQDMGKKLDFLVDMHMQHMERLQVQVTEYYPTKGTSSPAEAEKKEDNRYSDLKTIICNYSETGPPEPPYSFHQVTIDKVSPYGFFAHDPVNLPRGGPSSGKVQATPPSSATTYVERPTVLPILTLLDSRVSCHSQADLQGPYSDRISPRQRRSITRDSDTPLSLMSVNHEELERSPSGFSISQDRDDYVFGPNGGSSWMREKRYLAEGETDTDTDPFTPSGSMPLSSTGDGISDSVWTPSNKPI", "test": "KCNQ2/3 currents, voltage clamp of CHO cells transiently expressing heterologous KCNQ2/3 channels", "assay_type": "cell-based", "protocol": "Retigabine and SF0034 at KCNQ2/3 channels. […] CHO cells transiently expressing heterologous KCNQ2/3 channels were clamped at −85 mV and KCNQ2/3 currents were measured elicited by 1 s depolarization step from −105 to +15 mV in the increment of 10 mV followed by return step to −70 mV. […] Representative current traces of KCNQ2/3 currents at increasing membrane potentials in absence and presence of 100 nM retigabine (A) and 100 nM SF0034 (C). B, D. Representative curves of normalized G-V (conductance-voltage) relationship of KCNQ2/3 currents at control and at increasing concentration of retigabine (B) and SF0034 (D). E. Summary bar graph representing half activation (V1/2) of KCNQ2/3 currents calculated from normalized G-V Boltzmann curves at control and at increasing concentration of retigabine and SF0034. […] Curves were fitted with a hill equation and EC50 values were calculated. Error bars represent mean±SEM. **p<0.01, ***p<0.001.\nCHO cells transiently expressing heterologous KCNQ2/3 channels were clamped at −85 mV and KCNQ2/3 currents were measured elicited by 1 s depolarization step from −105 to +15 mV in the increment of 10 mV followed by return step to −70 mV. […] Curves were fitted with a hill equation and EC50 values were calculated. Error bars represent mean±SEM. *p<0.05, **p<0.01.\nCHO cells transiently expressing heterologous KCNQ2/3 and homomeric KCNQ4 and KCNQ5 channels were clamped at −85 mV and KCNQ currents were elicited by 1 s depolarization step from −105 to +15 mV in the increment of 10 mV followed by return step to −70 mV. […] Representative current traces of KCNQ2/3 currents at increasing membrane potentials in absence and presence of 100 nM or 1 μM RL648_81. […] Representative curves of normalized G-V relationship of KCNQ2/3 currents at control and at increasing concentration of RL648_81. […] Summary bar graph representing half activation (V1/2) of KCNQ2/3 currents calculated from normalized G-V Boltzmann curves at control and at increasing concentration of RL648_81 A4. […] Curves were fitted with a hill equation and EC50 values were calculated. […] D. Summary bar graphs representing EC50 values of second generation compounds tested at KCNQ2/3 channels in comparison with SF0034."}, "KCNQ4 channels": {"biological_target": "T2, KCNQ4 channels (Homo sapiens, UniProt P56696)", "T2 construct": "expressed in transfected cells; host or cells: CHO cells, transient expression", "test": "KCNQ4 currents, voltage clamp of CHO cells transiently expressing homomeric KCNQ4 channels", "assay_type": "cell-based", "conditions": "100 nM and 1 μM", "description": "(§1) FIG. 7. […] CHO cells transiently expressing homomeric KCNQ4 or KCNQ5 channels were clamped at −85 mV and KCNQ currents were measured elicited by 1 s depolarization step from −105 to +15 mV in the increment of 10 mV followed by return step to −70 mV. […] B1-2. […] C1-2. […] E1-2. […] F1-2. […] H1-2. […] I1-2.\n(§2) FIG. 9. […] CHO cells transiently expressing heterologous KCNQ2/3 and homomeric KCNQ4 and KCNQ5 channels were clamped at −85 mV and KCNQ currents were elicited by 1 s depolarization step from −105 to +15 mV in the increment of 10 mV followed by return step to −70 mV. A1. […] A2. […] A3. […] Curves were fitted with a hill equation and EC50 values were calculated. B1."}, "KCNQ5 channels": {"biological_target": "T3, KCNQ5 channels (Homo sapiens, UniProt Q9NR82)", "T3 construct": "expressed in transfected cells; host or cells: CHO cells, transient expression", "test": "KCNQ5 currents, voltage clamp of CHO cells transiently expressing homomeric KCNQ5 channels", "assay_type": "cell-based", "conditions": "100 nM and 1 μM", "description": "as §1, §2"}, "[1]": {"conditions": "hydrochloride salt; cited from earlier work"}, "[2]": {"conditions": "CHO cells, 100 nM-30 μM, Hill fit, mean±SEM, read-out: EC50 of half activation shift (ΔV1/2) of KCNQ2/3 currents"}}, "note": "Read-outs that look alike come from different tables or passages of the source.", "data": [{"compound": "CCOC(=O)Nc1ccc(NCc2ccc(C(F)(F)F)cc2)cc1N", "values": [{"measurement": "EC50", "setting": "KCNQ2/3 channels", "result": "910 ± 80", "unit": "nM"}]}, {"compound": "CCOC(=O)Nc1ccc(NCc2cccc(C(F)(F)F)c2)cc1N", "note": "[NR561_50, N-[2-Amino-4-({[3-(trifluoromethyl)phenyl]methyl}amino)phenyl]ethoxycarboxamide]", "values": [{"measurement": "EC50", "setting": "KCNQ2/3 channels; [2]", "result": "740 ± 70", "unit": "nM"}, {"measurement": "activation of KCNQ4 channel currents", "setting": "KCNQ4 channels", "result": "does not activate KCNQ4 and KCNQ5 channel currents significantly"}, {"measurement": "activation of KCNQ5 channel currents", "setting": "KCNQ5 channels", "result": "does not activate KCNQ4 and KCNQ5 channel currents significantly"}]}, {"compound": "CC(C)OC(=O)Nc1ccc(NCc2ccc(F)cc2)cc1N", "note": "[NR561_62, N-(2-Amino-4-{[(4-fluorophenyl)methyl]amino}phenyl)(methylethoxy)carboxamide]", "values": [{"measurement": "potency in activating KCNQ2/3 channel currents relative to SF0034 (times lower potency)", "setting": "KCNQ2/3 channels; CHO cells", "result": "2-3 times"}, {"measurement": "EC50", "setting": "KCNQ2/3 channels; [2]", "result": "1480 ± 180", "unit": "nM"}]}, {"compound": "CCOC(=O)Nc1ccc(NCc2cccc(C(F)(F)F)c2)c(F)c1N", "note": "[RL648_73, Ethyl (2-amino-3-fluoro-4-((3-(trifluoromethyl)benzyl)amino)phenyl)carbamate]", "values": [{"measurement": "potency in activating KCNQ2/3 channel currents relative to SF0034 (times more potent)", "setting": "KCNQ2/3 channels; CHO cells", "result": 2, "unit": "times"}]}, {"compound": "CCOC(=O)Nc1ccc(NCc2ccc(C(F)(F)F)cc2)c(F)c1N", "note": "[RL648_81, Ethyl (2-amino-3-fluoro-4-((4-(trifluoromethyl)benzyl)amino)phenyl)carbamate]", "values": [{"measurement": "potency in activating KCNQ2/3 channel currents relative to SF0034 (times more potent)", "setting": "KCNQ2/3 channels; CHO cells", "result": "three times more potent than SF0034"}, {"measurement": "EC50", "setting": "KCNQ2/3 channels; [2]", "result": "190 ± 20", "unit": "nM"}, {"measurement": "activation of KCNQ4 channel currents", "setting": "KCNQ4 channels", "result": "does not potentiate KCNQ4 and KCNQ5 channel currents significantly"}, {"measurement": "activation of KCNQ5 channel currents", "setting": "KCNQ5 channels", "result": "does not potentiate KCNQ4 and KCNQ5 channel currents significantly"}]}, {"compound": "CCOC(=O)Nc1ccc(NCc2ccc(F)cc2)c(F)c1N", "note": "[SF0034, reference compound]", "values": [{"measurement": "shift of half activation (V1/2) of KCNQ2/3 currents from control", "setting": "KCNQ2/3 channels; 100 nM", "result": "significantly shift the V1/2"}, {"measurement": "potency in activating KCNQ2/3 channel currents relative to retigabine (times more potent)", "setting": "KCNQ2/3 channels; CHO cells", "result": "five-times more potent than retigabine"}, {"measurement": "EC50", "setting": "KCNQ2/3 channels; [2]", "result": "600 ± 60", "unit": "nM"}]}, {"compound": "CCOC(=O)Nc1ccc(NCc2ccc(F)cc2)cc1N", "note": "[retigabine, reference compound]", "values": [{"measurement": "EC50", "setting": "KCNQ2/3 channels", "result": "3300 ± 800", "unit": "nM"}, {"measurement": "solubility in aqueous solution", "setting": "[1]", "result": "only sparingly soluble"}]}, {"compound": "Isopropyl (2-amino-3-fluoro-4-((4-fluorobenzyl)amino)phenyl)carbamate [RL648_86]", "values": [{"measurement": "potency in activating KCNQ2/3 channel currents relative to SF0034 (times more potent)", "setting": "KCNQ2/3 channels; CHO cells", "result": 2, "unit": "times"}]}]}
